The text below walks through data of ChEMBL document CHEMBL5584214, “Design of MERS-CoV entry inhibitory short peptides based on helix-stabilizing strategies” (Bioorg Med Chem Lett, 2024).

Non-standard residues stand in square brackets, D forms with d. Residues, ends and D or L forms follow the SMILES beside them. *: point of attachment. PEG24 = NCCOCCOCCOCCOCCOCCOCCOCCOCCOCCOCCOCCOCCOCCOCCOCCOCCOCCOCCOCCOCCOCCOCCOCCOCCC(=O)O; Palmitoyl = CCCCCCCCCCCCCCCC(=O)*; Octanoyl = CCCCCCCC(=O)*; AEEA = NCCOCCOCC(=O)O; Aib = CC(C)(N)C(=O)O

The assay in a line: Inhibition of MERS-CoV Spike glycoprotein mediated cell-cell fusion. Also noted: species or system Middle East respiratory syndrome-related coronavirus.

`CCCCCCCCCCCCCCCC(=O)NCCCC[C@H](NC(=O)CCOCCOCCOCCOCCOCCOCCOCCOCCOCCOCCOCCOCCOCCOCCOCCOCCOCCOCCOCCOCCOCCOCCOCCOCCNC(=O)[C@H](Cc1ccc(O)cc1)NC(=O)[C@H](CO)NC(=O)[C@H](CCC(=O)O)NC(=O)[C@H](CC(N)=O)NC(=O)[C@H](CC(C)C)NC(=O)[C@H](CCCCN)NC(=O)[C@H](CCCCN)NC(=O)[C@@H](NC(=O)[C@@H](NC(=O)[C@H](CCC(=O)O)NC(=O)[C@H](CCC(N)=O)NC(=O)[C@H](CC(C)C)NC(=O)[C@H](CO)NC(=O)[C@H](CC(C)C)NC(=O)[C@H](CCSC)NC(=O)C(C)(C)NC(=O)[C@H](Cc1ccc(O)cc1)NC(=O)[C@@H](NC(=O)[C@H](CC(C)C)NC(=O)C(C)(C)NC(=O)[C@H](CC(C)C)NC(C)=O)[C@@H](C)O)C(C)C)C(C)C)C(N)=O` (Ac-L[Aib]LTY[Aib]MLSLQEVVKKLNESY[PEG24]K(Palmitoyl)-NH2) had a concentration for a half-maximal effect (EC50) of over 50 µM.
With `CSCC[C@H](NC(=O)[C@H](CCC(=O)O)NC(=O)[C@H](Cc1ccc(O)cc1)NC(=O)[C@@H](NC(=O)[C@H](CC(C)C)NC(=O)[C@H](CC(=O)O)NC(=O)[C@H](CC(C)C)NC(C)=O)[C@@H](C)O)C(=O)N[C@@H](CC(C)C)C(=O)NC(C)(C)C(=O)N[C@@H](CC(C)C)C(=O)N[C@@H](CCC(N)=O)C(=O)N[C@@H](CCC(N)=O)C(=O)NC(C)(C)C(=O)N[C@H](C(=O)N[C@@H](CCCCN)C(=O)N[C@@H](C)C(=O)N[C@@H](CC(C)C)C(=O)N[C@@H](CC(N)=O)C(=O)N[C@@H](CCC(=O)O)C(=O)N[C@@H](CO)C(=O)N[C@@H](Cc1ccc(O)cc1)C(N)=O)C(C)C` (Ac-LDLTYEML[Aib]LQQ[Aib]VKALNESY-NH2), the EC50 was over 50 µM.
As to `CSCC[C@H](NC(=O)[C@H](CCC(=O)O)NC(=O)[C@H](Cc1ccc(O)cc1)NC(=O)[C@@H](NC(=O)[C@H](CC(C)C)NC(=O)[C@H](CC(=O)O)NC(=O)[C@H](CC(C)C)NC(C)=O)[C@@H](C)O)C(=O)N[C@@H](CC(C)C)C(=O)N[C@@H](CO)C(=O)N[C@@H](CC(C)C)C(=O)N[C@@H](CCC(N)=O)C(=O)N[C@@H](CCC(N)=O)C(=O)N[C@H](C(=O)N[C@H](C(=O)N[C@@H](CCCCN)C(=O)N[C@@H](C)C(=O)N[C@@H](CC(C)C)C(=O)N[C@@H](CC(N)=O)C(=O)N[C@@H](CCC(=O)O)C(=O)N[C@@H](C)C(=O)N[C@@H](Cc1ccc(O)cc1)C(N)=O)C(C)C)C(C)C`, the EC50 stood at 6.67 µM.
`CSCC[C@H](NC(=O)C(C)(C)NC(=O)[C@H](Cc1ccc(O)cc1)NC(=O)[C@@H](NC(=O)[C@H](CC(C)C)NC(=O)C(C)(C)NC(=O)[C@H](CC(C)C)NC(C)=O)[C@@H](C)O)C(=O)N[C@@H](CC(C)C)C(=O)N[C@@H](CO)C(=O)N[C@@H](CC(C)C)C(=O)N[C@@H](CCC(N)=O)C(=O)N[C@@H](CCC(=O)O)C(=O)N[C@H](C(=O)N[C@H](C(=O)N[C@@H](CCCCN)C(=O)N[C@@H](CCCCN)C(=O)N[C@@H](CC(C)C)C(=O)N[C@@H](CC(N)=O)C(=O)N[C@@H](CCC(=O)O)C(=O)N[C@@H](CO)C(=O)N[C@@H](Cc1ccc(O)cc1)C(N)=O)C(C)C)C(C)C` (Ac-L[Aib]LTY[Aib]MLSLQEVVKKLNESY-NH2) had an EC50 of 3.62 µM.
For `CSCC[C@H](NC(=O)[C@H](CCC(=O)O)NC(=O)[C@H](Cc1ccc(O)cc1)NC(=O)[C@@H](NC(=O)[C@H](CC(C)C)NC(=O)[C@H](CC(=O)O)NC(=O)[C@H](CC(C)C)NC(C)=O)[C@@H](C)O)C(=O)N[C@@H](CC(C)C)C(=O)N[C@@H](CO)C(=O)N[C@@H](CC(C)C)C(=O)N[C@@H](CCC(N)=O)C(=O)N[C@@H](CCC(N)=O)C(=O)N[C@H](C(=O)N[C@H](C(=O)N[C@@H](CCCCN)C(=O)N[C@@H](C)C(=O)N[C@@H](CC(C)C)C(=O)N[C@@H](CC(N)=O)C(=O)N[C@@H](CCC(=O)O)C(=O)N[C@@H](CO)C(=O)N[C@@H](Cc1ccc(O)cc1)C(N)=O)C(C)C)C(C)C` the value was over 50 µM; for Ac-LDLTYEMASLQAVVKALNESY-NH2, over 50 µM.
The compound `CSCC[C@H](NC(=O)[C@H](CCC(=O)O)NC(=O)C(C)(C)NC(=O)[C@@H](NC(=O)[C@H](CC(C)C)NC(=O)[C@H](CC(=O)O)NC(=O)C(C)(C)NC(C)=O)[C@@H](C)O)C(=O)N[C@@H](CC(C)C)C(=O)N[C@@H](CO)C(=O)N[C@@H](CC(C)C)C(=O)N[C@@H](CCC(N)=O)C(=O)N[C@@H](CCC(N)=O)C(=O)N[C@H](C(=O)N[C@H](C(=O)N[C@@H](CCCCN)C(=O)N[C@@H](C)C(=O)N[C@@H](CC(C)C)C(=O)N[C@@H](CC(N)=O)C(=O)N[C@@H](CCC(=O)O)C(=O)N[C@@H](CO)C(=O)N[C@@H](Cc1ccc(O)cc1)C(N)=O)C(C)C)C(C)C` returned an EC50 of over 50 µM.
Turning to `CSCC[C@H](NC(=O)[C@H](CCC(=O)O)NC(=O)[C@H](Cc1ccc(O)cc1)NC(=O)C(C)(C)NC(=O)[C@H](CC(C)C)NC(=O)[C@H](CC(=O)O)NC(=O)[C@H](CC(C)C)NC(C)=O)C(=O)NC(C)(C)C(=O)N[C@@H](CO)C(=O)N[C@@H](CC(C)C)C(=O)N[C@@H](CCC(N)=O)C(=O)N[C@@H](CCC(N)=O)C(=O)N[C@H](C(=O)N[C@H](C(=O)N[C@@H](CCCCN)C(=O)N[C@@H](C)C(=O)N[C@@H](CC(C)C)C(=O)N[C@@H](CC(N)=O)C(=O)N[C@@H](CCC(=O)O)C(=O)N[C@@H](CO)C(=O)N[C@@H](Cc1ccc(O)cc1)C(N)=O)C(C)C)C(C)C`, the 50% effective concentration (EC50) worked out at 24.4 µM.
`CCCCCCCC(=O)NCCCC[C@H](NC(=O)COCCOCCNC(=O)[C@H](Cc1ccc(O)cc1)NC(=O)[C@H](CO)NC(=O)[C@H](CCC(=O)O)NC(=O)[C@H](CC(N)=O)NC(=O)[C@H](CC(C)C)NC(=O)[C@H](CCCCN)NC(=O)[C@H](CCCCN)NC(=O)[C@@H](NC(=O)[C@@H](NC(=O)[C@H](CCC(=O)O)NC(=O)[C@H](CCC(N)=O)NC(=O)[C@H](CC(C)C)NC(=O)[C@H](CO)NC(=O)[C@H](CC(C)C)NC(=O)[C@H](CCSC)NC(=O)C(C)(C)NC(=O)[C@H](Cc1ccc(O)cc1)NC(=O)[C@@H](NC(=O)[C@H](CC(C)C)NC(=O)C(C)(C)NC(=O)[C@H](CC(C)C)NC(C)=O)[C@@H](C)O)C(C)C)C(C)C)C(N)=O` (Ac-L[Aib]LTY[Aib]MLSLQEVVKKLNESY[AEEA]K(Octanoyl)-NH2) yielded an EC50 of 0.864 µM.
In turn, `CSCC[C@H](NC(=O)[C@H](CCC(=O)O)NC(=O)[C@H](Cc1ccc(O)cc1)NC(=O)[C@@H](NC(=O)[C@H](CC(C)C)NC(=O)[C@H](CC(=O)O)NC(=O)[C@H](CC(C)C)NC(C)=O)[C@@H](C)O)C(=O)N[C@@H](CC(C)C)C(=O)N[C@@H](CO)C(=O)N[C@@H](CC(C)C)C(=O)N[C@@H](CCC(N)=O)C(=O)N[C@@H](CCC(N)=O)C(=O)N[C@H](C(=O)N[C@H](C(=O)NC(C)(C)C(=O)N[C@@H](C)C(=O)N[C@@H](CC(C)C)C(=O)N[C@@H](CC(N)=O)C(=O)NC(C)(C)C(=O)N[C@@H](CO)C(=O)N[C@@H](Cc1ccc(O)cc1)C(N)=O)C(C)C)C(C)C` came in with a 50% effective concentration (EC50) of 3.04 µM.
With `CSCC[C@H](NC(=O)[C@H](CCC(=O)O)NC(=O)[C@H](Cc1ccc(O)cc1)NC(=O)[C@@H](NC(=O)[C@H](CC(C)C)NC(=O)[C@H](CC(=O)O)NC(=O)[C@H](CC(C)C)NC(C)=O)[C@@H](C)O)C(=O)N[C@@H](CC(C)C)C(=O)N[C@@H](CO)C(=O)N[C@@H](CC(C)C)C(=O)NC(C)(C)C(=O)N[C@@H](CCC(N)=O)C(=O)N[C@H](C(=O)N[C@H](C(=O)NC(C)(C)C(=O)N[C@@H](C)C(=O)N[C@@H](CC(C)C)C(=O)N[C@@H](CC(N)=O)C(=O)N[C@@H](CCC(=O)O)C(=O)N[C@@H](CO)C(=O)N[C@@H](Cc1ccc(O)cc1)C(N)=O)C(C)C)C(C)C` (Ac-LDLTYEMLSL[Aib]QVV[Aib]ALNESY-NH2), a half-maximal effect (EC50) was put at 2.55 µM.
The compound `CSCC[C@H](NC(=O)[C@H](CCC(=O)O)NC(=O)C(C)(C)NC(=O)[C@@H](NC(=O)[C@H](CC(C)C)NC(=O)[C@H](CC(=O)O)NC(=O)[C@H](CC(C)C)NC(C)=O)[C@@H](C)O)C(=O)N[C@@H](CC(C)C)C(=O)NC(C)(C)C(=O)N[C@@H](CC(C)C)C(=O)N[C@@H](CCC(N)=O)C(=O)N[C@@H](CCC(N)=O)C(=O)N[C@H](C(=O)N[C@H](C(=O)N[C@@H](CCCCN)C(=O)N[C@@H](C)C(=O)N[C@@H](CC(C)C)C(=O)N[C@@H](CC(N)=O)C(=O)N[C@@H](CCC(=O)O)C(=O)N[C@@H](CO)C(=O)N[C@@H](Cc1ccc(O)cc1)C(N)=O)C(C)C)C(C)C` gave a concentration giving a half-maximal response (EC50) of over 50 µM.
For `CSCC[C@H](NC(=O)[C@H](CCC(=O)O)NC(=O)[C@H](Cc1ccc(O)cc1)NC(=O)[C@@H](NC(=O)[C@H](CC(C)C)NC(=O)[C@H](CC(=O)O)NC(=O)[C@H](CC(C)C)NC(C)=O)[C@@H](C)O)C(=O)N[C@@H](CC(C)C)C(=O)N[C@@H](CO)C(=O)N[C@@H](CC(C)C)C(=O)N[C@@H](CCC(N)=O)C(=O)NC(C)(C)C(=O)N[C@H](C(=O)N[C@H](C(=O)N[C@@H](CCCCN)C(=O)NC(C)(C)C(=O)N[C@@H](CC(C)C)C(=O)N[C@@H](CC(N)=O)C(=O)N[C@@H](CCC(=O)O)C(=O)N[C@@H](CO)C(=O)N[C@@H](Cc1ccc(O)cc1)C(N)=O)C(C)C)C(C)C` (Ac-LDLTYEMLSLQ[Aib]VVK[Aib]LNESY-NH2) the value was 6.66 µM; for `CSCC[C@H](NC(=O)C(C)(C)NC(=O)[C@H](Cc1ccc(O)cc1)NC(=O)[C@H](CCC(=O)O)NC(=O)[C@H](CC(C)C)NC(=O)C(C)(C)NC(=O)[C@H](CC(C)C)NC(C)=O)C(=O)N[C@@H](CCCCN)C(=O)N[C@@H](CO)C(=O)N[C@@H](CC(C)C)C(=O)N[C@@H](CCC(N)=O)C(=O)N[C@@H](CCC(=O)O)C(=O)N[C@H](C(=O)N[C@H](C(=O)N[C@@H](CCCCN)C(=O)N[C@@H](CCCCN)C(=O)N[C@@H](CC(C)C)C(=O)N[C@@H](CC(N)=O)C(=O)N[C@@H](CCC(=O)O)C(=O)N[C@@H](CO)C(=O)N[C@@H](Cc1ccc(O)cc1)C(N)=O)C(C)C)C(C)C` (Ac-L[Aib]LEY[Aib]MKSLQEVVKKLNESY-NH2), 24 µM.
`CSCC[C@H](NC(=O)C(C)(C)NC(=O)[C@H](Cc1ccc(O)cc1)NC(=O)[C@H](CCC(=O)O)NC(=O)[C@H](CC(C)C)NC(=O)C(C)(C)NC(=O)[C@H](CC(C)C)NC(C)=O)C(=O)N[C@@H](CCCCN)C(=O)N[C@@H](CO)C(=O)N[C@@H](CC(C)C)C(=O)N[C@@H](CCC(N)=O)C(=O)N[C@@H](CCC(N)=O)C(=O)N[C@H](C(=O)N[C@H](C(=O)N[C@@H](CCCCN)C(=O)N[C@@H](C)C(=O)N[C@@H](CC(C)C)C(=O)N[C@@H](CC(N)=O)C(=O)N[C@@H](CCC(=O)O)C(=O)N[C@@H](CO)C(=O)N[C@@H](Cc1ccc(O)cc1)C(N)=O)C(C)C)C(C)C` gave an EC50 of 14.8 µM.
